# From ChEMBL document CHEMBL4043157, “Benzothiazole analogues: Synthesis, characterization, MO calculations with PM6 and DFT, in silico studies and in vitro antimalarial as DHFR inhibitors and antimicrobial activities” (Bioorg Med Chem, 2017)
# The source made the active and inactive calls. The rule behind the calls is not given here.
# Experiments:
# Dihydrofolate reductase = target: T1, Dihydrofolate reductase (Bos taurus, UniProt P00376); experiment: Inhibition of bovine liver DHFR
# T1 sequence (P00376 whole entry): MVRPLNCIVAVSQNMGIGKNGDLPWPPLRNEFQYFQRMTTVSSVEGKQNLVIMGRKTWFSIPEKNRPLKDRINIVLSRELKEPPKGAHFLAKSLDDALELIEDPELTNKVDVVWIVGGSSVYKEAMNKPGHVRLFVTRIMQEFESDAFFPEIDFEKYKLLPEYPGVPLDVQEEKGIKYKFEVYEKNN
# Aspergillus clavatus [1] = settings: MTCC 1323
# Staphylococcus aureus = experiment: Antimicrobial activity against Staphylococcus aureus MTCC 96; assay type: functional
# Escherichia coli = experiment: Antimicrobial activity against Escherichia coli MTCC 443; assay type: functional
# [2] = Cytotoxicity in Schizosaccharomyces pombe assessed as cell viability at 4 ug/ml (reference value: 94.67 +/- 1.53%); settings: Schizosaccharomyces pombe cells, read-out: Activity
# Plasmodium falciparum = experiment: Antimalarial activity against Plasmodium falciparum; assay type: functional
# [3] = Cytotoxicity in Schizosaccharomyces pombe assessed as cell viability at 8 ug/ml (reference value: 94.67 +/- 1.53%); settings: Schizosaccharomyces pombe cells, read-out: Activity
# Streptococcus pyogenes = experiment: Antimicrobial activity against Streptococcus pyogenes MTCC 442; assay type: functional
# Candida albicans = experiment: Antimicrobial activity against Candida albicans MTCC 227; assay type: functional
# [4] = Cytotoxicity in Schizosaccharomyces pombe assessed as cell viability at 6 ug/ml (reference value: 94.67 +/- 1.53%); settings: Schizosaccharomyces pombe cells, read-out: Activity
# Pseudomonas aeruginosa = experiment: Antimicrobial activity against Pseudomonas aeruginosa MTCC 1688; assay type: functional
# [5] = test system: Schizosaccharomyces pombe; experiment: Genotoxicity in Schizosaccharomyces pombe assessed as induction of DNA damage by measuring appearance of DNA smear DNA band at 2 to 10 ug/ml by agarose gel electrophoresis
# [6] = Cytotoxicity in Schizosaccharomyces pombe assessed as cell viability at 10 ug/ml (reference value: 94.67 +/- 1.53%); settings: Schizosaccharomyces pombe cells, read-out: Activity
# [7] = Cytotoxicity in Schizosaccharomyces pombe assessed as cell viability at 2 ug/ml (reference value: 94.67 +/- 1.53%); settings: Schizosaccharomyces pombe cells, read-out: Activity
# Aspergillus clavatus [8] = experiment: Antimicrobial activity against Aspergillus clavatus MTCC 1323; assay type: functional
Compound,IC50 (Dihydrofolate reductase),MIC (Aspergillus clavatus [1]),MIC (Staphylococcus aureus),MIC (Escherichia coli),viability at 4 ug/ml [2],IC50 (Plasmodium falciparum),viability at 8 ug/ml [3],MIC (Streptococcus pyogenes),MIC (Candida albicans),viability at 6 ug/ml [4],MIC (Pseudomonas aeruginosa),Activity [5],viability at 10 ug/ml [6],viability at 2 ug/ml [7],MIC (Aspergillus clavatus [8])
Brc1ccc(/C=N/c2nc3ccccc3s2)cc1,45.5 nM,inactive,791 µM,198 µM,73.3%,288 nM,68.3%,633 µM,inactive,72.3%,396 µM,Toxic,66.3%,77.3%,–
C(=N\c1nc2ccccc2s1)/c1ccco1,–,inactive,877 µM,548 µM,73%,1860 nM,62.3%,439 µM,4380 µM,64%,877 µM,Toxic,61.7%,78.7%,–
O=C(O)c1cn(C2CC2)c2cc(N3CCNCC3)c(F)cc2c1=O [CIPROFLOXACIN],–,–,151 µM,75 µM,–,–,–,151 µM,–,–,75 µM,–,–,–,–
NYSTATIN,–,108 µM,–,–,–,–,–,–,108 µM,–,–,–,–,–,–
CC1(C)S[C@@H]2[C@H](NC(=O)[C@H](N)c3ccccc3)C(=O)N2[C@H]1C(=O)O [AMPICILLIN],–,–,716 µM,286 µM,–,–,–,286 µM,–,–,286 µM,–,–,–,–
CCn1cc(C(=O)O)c(=O)c2cc(F)c(N3CCNCC3)cc21 [NORFLOXACIN],–,–,31 µM,31 µM,–,–,–,31 µM,–,–,31 µM,–,–,–,–
COC1=CC(=O)C[C@@H](C)[C@]12Oc1c(Cl)c(OC)cc(OC)c1C2=O [GRISEOFULVIN],–,–,–,–,–,–,–,–,1420 µM,–,–,–,–,–,284 µM
Oc1ccc(/C=N/c2nc3ccccc3s2)cc1,51.2 nM,inactive,984 µM,394 µM,75%,386 nM,68.3%,1970 µM,inactive,69.3%,394 µM,Toxic,65.3%,87%,–
Clc1ccc(/C=N/c2nc3ccccc3s2)cc1Cl,–,–,409 µM,409 µM,84.3%,980 nM,77%,327 µM,inactive,81%,409 µM,Toxic,73.3%,89%,1630 µM
Fc1ccc(/C=N/c2nc3ccccc3s2)cc1,–,–,244 µM,781 µM,81.7%,1480 nM,72.3%,391 µM,1950 µM,73%,976 µM,Toxic,71.7%,86.3%,1950 µM
C(=N\c1nc2ccccc2s1)/c1ccc[nH]1,–,–,551 µM,881 µM,82.3%,1910 nM,71.7%,440 µM,2200 µM,74.3%,1100 µM,Toxic,69.7%,87%,4400 µM
CCc1nc(N)nc(N)c1-c1ccc(Cl)cc1 [PYRIMETHAMINE],–,–,–,–,–,1000 nM,–,–,–,–,–,–,–,–,–
O=[N+]([O-])c1cccc(/C=N/c2nc3ccccc3s2)c1,31.2 nM,–,707 µM,883 µM,84%,201 nM,74.7%,883 µM,1770 µM,79.3%,221 µM,Toxic,70.3%,88.7%,883 µM
O=C(N[C@H](CO)[C@H](O)c1ccc([N+](=O)[O-])cc1)C(Cl)Cl [CHLORAMPHENICOL],–,–,155 µM,155 µM,–,–,–,155 µM,–,–,155 µM,–,–,–,–
C(=N\c1nc2ccccc2s1)/c1cccs1,–,inactive,410 µM,256 µM,81.7%,1020 nM,73%,410 µM,4100 µM,80.7%,410 µM,Toxic,67%,86%,–
O=[N+]([O-])c1ccccc1/C=N/c1nc2ccccc2s1,53.1 nM,inactive,353 µM,442 µM,82%,396 nM,77%,221 µM,3530 µM,79.7%,707 µM,Toxic,72.3%,84.3%,–
Clc1ccc(/C=N/c2nc3ccccc3s2)cc1,41.5 nM,–,460 µM,735 µM,87%,353 nM,78%,368 µM,3680 µM,82.7%,460 µM,Toxic,75.3%,89.3%,1840 µM
